Experiments:
[1] = tested on: rat; conditions: 1-month and 6-month rat studies; ref AZD5069 Investigator Brochure (IB); cited from earlier work
[2] = tested on: CYP2B6; design: method as in AZD5069 Investigator Brochure (IB); conditions: human hepatocytes; ref AZD5069 Investigator Brochure (IB); cited from earlier work
[3] = tested on: CYP2A6; design: method as in AZD5069 Investigator Brochure (IB); conditions: at concentrations of up to 100 μmol/L; ref AZD5069 Investigator Brochure (IB); cited from earlier work
[4] = design: method as in AZD5069 Investigator Brochure (IB); conditions: ref AZD5069 Investigator Brochure (IB), cited from earlier work
[5] = tested on: CD11b+HLA-DRloCD15+CD14− myeloid cells; assay: Hyperplex IF of paired pre- and on-treatment mCRPC biopsies: intratumour immune cell density; format: in vivo, human
Procedure: Specific pharmacokinetic collection time points are listed in the study protocol. Pharmacokinetic parameters were calculated using non-compartmental analysis (Phoenix v.8.1, Certara). Fresh tumour needle core biopsies from matched disease sites (lymph node, bone and soft tissue) were collected at baseline (within 1 week of treatment commencement) and approximately 2 weeks after starting AZD5069 in patients when this was deemed safe and feasible. Tumour biopsies were obtained from 18 patients under computerized tomography or ultrasound guidance by an experienced interventional radiologist (N.T.). […] One patient had only a baseline tumour biopsy. Two patients underwent on-treatment biopsies after 4 weeks. Immediately after biopsy, tumour samples were immersed in 10% neutral-buffered formalin for 24 hours. Samples were processed through paraffin wax for histologic examination. […] Baseline FFPE samples were analysed by IHC, and pre- and post-treatment FFPE biopsies were analysed by IF and targeted RNA profiling using HTG EdgeSeq. […]
The hyperplex IF protocol template was generated using the COMET Control Software (v.0.70.0.1, Lunaphore Technologies), and reagents were loaded onto the device to carry out the sequential IF (seqIF) protocol. […] Nuclear signal was detected with DAPI (No. 62248, dilution 1:1,000, Thermo Fisher Scientific) by dynamic incubation of 2 min. […]

[6] = tested on: circulating CXCL1, CXCL2, CXCL5, CXCL6, CXCL7 and CXCL8; assay: Circulating cytokine analyses (Luminex, ELISA) in patient serum; format: in vivo, human; conditions: serial serum samples
Procedure: Serum samples were collected at baseline, on day 1 of every cycle, and on cycle 1 day 15. CXCL2, CXCL5, CXCL6, CXCL7 and CXCL8 were measured in patient serum (diluted 1:2 except for CXCL7, which was diluted 1:200), then analysed using R&D Systems Luminex discovery assays using the Luminex 200 and interpolated using a five-parameter logistic curve fit. CXCL1 was measured in neat patient serum using the R&D Systems human GROα Quantikine ELISA using the Perkin Elmer Envision 2103 Multilabel plate reader and interpolated using linear regression. The Luminex and ELISA assays were validated to good clinical practice compliance by The ICR and included quality control samples of serum, unspiked or spiked with recombinant protein standard, from healthy volunteer serum in every analytical run. A list of the ELISA reagents is provided in Supplementary Table 9.

[7] = tested on: CYP2C8; design: method as in AZD5069 Investigator Brochure (IB); conditions: ref AZD5069 Investigator Brochure (IB); cited from earlier work
[8] = tested on: P-glycoprotein (P-gp; MDR1) transporter mRNA; design: method as in AZD5069 Investigator Brochure (IB); conditions: human hepatocytes; ref AZD5069 Investigator Brochure (IB); cited from earlier work
[9] = design: method as in AZD5069 Investigator Brochure (IB); conditions: in vitro and in vivo studies; ref AZD5069 Investigator Brochure (IB); cited from earlier work
[10] = tested on: healthy volunteers; design: method as in AZD5069 Investigator Brochure (IB); conditions: ref AZD5069 Investigator Brochure (IB), cited from earlier work
[11] = tested on: CYP3A4; design: method as in AZD5069 Investigator Brochure (IB); conditions: at concentrations of up to 100 μmol/L; ref AZD5069 Investigator Brochure (IB); cited from earlier work

Which “dose with enlarged mandibular lymph nodes in both sexes” value [1] does the source give for `C[C@@H](Oc1cc(NS(=O)(=O)N2CCC2)nc(SCc2cccc(F)c2F)n1)[C@@H](O)CO` [AZD5069] here?
Its value is ≥ 40 mg/kg BD.

And the “induction of CYP2B6 activity” value [2]?
Its value is “concentration dependent induction”.

What about the “inhibition of CYP2A6” value [3] of the same molecule?
The value was “not an inhibitor”.

What about the tmax ([4]; fasting conditions) of the same molecule?
The tmax was ~ 2 hours.

And the initial half-life ([4]; plasma)?
The initial half-life was 4 h.

And the terminal half-life ([4]; plasma)?
The terminal half-life was 11 h.

And the “apparent volume of distribution” value [4]?
Its value is ~ 53 L.

And the food effect [4]?
The food effect was “reduces the peak concentration but total exposure (AUC) is unchanged”.

What about the “fraction of the drug renally excreted” value [4] of the same molecule?
The value was “Less than 10%”.

What about the total plasma clearance [4] of the same molecule?
The total plasma clearance was ~ 8 L/h.

And the “systemic exposure versus dose” value ([4]; single and repeated BD dosing)?
Its value is “proportional to the dose”.

And the “density of other immune cells in CRPC biopsies” value [5]?
The value was “did not significantly alter the density of other immune cells”.

What about the “density of CD11b+HLA-DRloCD15+CD14− myeloid cells in CRPC biopsies” value ([5]; most patients treated with AZD5069 >40 mg BD, approximately 2 weeks after starting treatment) of the same molecule?
Its value is “reduced the density”.

And the “levels of circulating CXCL1, CXCL2 and CXCL8 after treatment” value [6]?
Its value is “increased in a dose-dependent manner”.

And the “levels of circulating CXCL5, CXCL6 and CXCL7 after treatment” value [6]?
Its value is “did not consistently increase”.

What about the IC50 [7] of the same molecule?
Its IC50 is ~100 µM.

And the “induction of P-glycoprotein (P-gp; MDR1) transporter mRNA” value [8]?
Its value is “concentration dependent induction”.

What about the genotoxicity [9] of the same molecule?
Its genotoxicity is “not genotoxic”.

What about the “adverse effects considered to be related to treatment” value ([10]; 202 healthy volunteers) of the same molecule?
Its value is “no clinically significant adverse effects”.

And the “doses with a reduction in blood neutrophil counts” value ([10]; healthy volunteers)?
The value was ≥ 5.45 mg.

What about the “inhibition of CYP3A4” value [11] of the same molecule?
The value was “not an inhibitor”.

Reference: PMC10686834, “Targeting myeloid chemotaxis to reverse prostate cancer therapy resistance” (Nature, 2023)
